Experiments:
[1] = tested on: hTERT+TK-transduced human corneal stromal cells; test: Susceptibility to ganciclovir treatment, cell count with trypan-blue staining; format: cell-based; details: n=3
Description: (§1) The susceptibilities of the transduced human corneal stromal cells to ganciclovir treatment were investigated by the following process. The hTERT-transduced human corneal stromal cells of Comparative Example and the hTERT+TK-transduced human corneal stromal cells of Example 1 were separately seeded at 2×10^4 cells/cm^2 in a 24-well plate, and cultured under conditions of 37° C. and 5% CO2 (medium: DMEM, 10% FBS, 100 U/ml penicillin and 100 μg/ml streptomycin). On the 1st day after seeding, ganciclovir treatment was started (treatment concentration: 0, 10^−7, […], […], and 10^−4 M; time course: day 0, 2, 4, 6, 8, 10, and 12). The susceptibility of each type of the transduced human corneal stromal cells to ganciclovir treatment was determined using 3 wells for each concentration at each time point (n=3). At each time point, the number of the cells was counted with trypan-blue staining. For counting with trypan-blue staining, an erythrocytometer (hematometer; product name: Burker-Turk deep 1/10 mm; product number: Tokyo No. 0880 (ERMA, Inc.)) was used. Immediately after staining, each sample was placed in a counting chamber of the erythrocytometer. Immediately after that, the number of the cells was counted. The average number of the cells on the zero-day of ganciclovir treatment at each treatment concentration was used as a baseline (100%) for the results of the cell number at each time point.

[2] = tested on: hTERT-transduced human corneal stromal cells (not transduced with the HSV-TK gene); test: as above; format: cell-based; details: any treatment concentration (up to 10^-4 M), 12th day after ganciclovir treatment, n=3
Description: as §1

For `Nc1nc(O)c2ncn(COC(CO)CO)c2n1` [ganciclovir], the “number of the cells after ganciclovir treatment” value (“number of the cells” for short) ([1]; 10^-4 M treatment group, 6th day after ganciclovir treatment) was “all the cells died”, the “number of the cells” value ([1]; 10^-7, 10^-6 and 10^-5 M groups, from the 8th day after ganciclovir treatment) was “concentration-dependent decrease in the number of the cells” and the “number of the cells” value [2] was “did not decrease”.
